According to publication PMC11047187 (Synthetic and Systems Biotechnology, 2024):

Key:
[1] = molecular target: T1, EcFADS (FAD synthase, RibF; RFK activity) (Escherichia coli, UniProt P0AG40); assay: RFK assay, FMN by HPLC fluorescence, Michaelis-Menten fit; format: biochemical; settings: riboflavin kinase activity; 0.01-0.8 mM ATP, saturated RF; 15 mM MgCl2, 10 mM Na2SO3, potassium phosphate pH 7.5, 37 °C; read-out: KATP m
T1 construct: full-length bifunctional RibF in pETDuet-1 (BamHI/NotI), His-tagged, Ni-NTA purified, expressed in E. coli BL21(DE3); natural BL21 variant H115L (not engineered); about 35 kDa; mainly monomer; tag removal not mentioned
Description: (§1) RFK assay, FMN by HPLC fluorescence, Michaelis-Menten fit on EcFADS (FAD synthase, RibF; RFK activity)

[2] = molecular target: T2, EcFADS (FAD synthase, RibF; RFK activity) (Escherichia coli, UniProt P0AG40, H187L/N282D, form not given); assay: as above; format: biochemical; settings: riboflavin kinase activity; 0.01-0.8 mM ATP, saturated RF; 15 mM MgCl2, 10 mM Na2SO3, potassium phosphate pH 7.5, 37 °C; read-out: KATP m
T2 construct: full-length bifunctional RibF in pETDuet-1 (BamHI/NotI), His-tagged, Ni-NTA purified, expressed in E. coli BL21(DE3); natural BL21 variant H115L (not engineered); about 35 kDa; mainly monomer; tag removal not mentioned
T2 sequence (P0AG40 whole entry H187L/N282D, form open): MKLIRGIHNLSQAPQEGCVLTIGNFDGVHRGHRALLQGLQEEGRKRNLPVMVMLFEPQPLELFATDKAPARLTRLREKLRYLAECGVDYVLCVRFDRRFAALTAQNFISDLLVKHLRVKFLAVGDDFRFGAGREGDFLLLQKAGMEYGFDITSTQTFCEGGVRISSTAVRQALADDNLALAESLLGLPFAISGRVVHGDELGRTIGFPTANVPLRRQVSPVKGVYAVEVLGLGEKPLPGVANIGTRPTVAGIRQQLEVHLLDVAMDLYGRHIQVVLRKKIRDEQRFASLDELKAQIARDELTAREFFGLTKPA
Description: as §1

SMILES: Nc1ncnc2c1ncn2[C@@H]1O[C@H](COP(=O)(O)OP(=O)(O)OP(=O)(O)O)[C@@H](O)[C@H]1O [ATP]
- Km [1]: 10.2 ± 2.55 µM
- Km [2]: 91.1 ± 36.7 µM
